From publication PMC7369900 (International Journal of Molecular Sciences, 2020)
In brackets after ≈: the same amount, converted by molar mass.

Columns and labels:
[1] = tested on: HEK 293; experiment: ROS generation (CM-H2DCFDA, flow cytometry); format: cell-based, human; conditions: human, 500 µM
Protocol: (§1) In the positive controls treated with H2O2, the fraction of ROS-positive cells exceeded 75%. […] Strikingly, in HL-60, a biologically significant effect was observed almost immediately (after 15 min of incubation). The same was noted after 1 h in the HEK 293 cell line. […] Similarly, conjugates 4 and 5 generated ROS at the low level (less than 15% for HL-60 and less than 20% for HEK 293) (manuscript in preparation). […] For HL-60, the critical level of ROS was noted after 15 min of incubation.
(§2) ROS generation activity was evaluated as described previously. Briefly, HEK 293 cells were seeded on 35-mm Petri dishes in the amount of 15,000 cells per plate for 24 h in DMEM medium. […] Positive controls contained 250 µM H2O2, while negative controls were without any additions. After 0.5, 2.5, 5.5, and 24 h of incubation at 37 °C, the CM-H2DCFDA molecular probe (Thermo Fischer Scientific, Waltham, USA) was added to the plates and incubation was continued for another 0.5 h. The HEK 293 cells were detached with 0.05% trypsin solution in PBS and HBSS (Hank’s Balanced Salt Solution) and suspended in fresh DMEM medium. All samples were additionally stained with 7-AAD (7-aminoactinomycin D, 0.8 µg/mL) and immediately analysed with a Guava easyCyte flow cytometer (Merc, Burlington, USA). The determinations were performed in triplicates.

[2] = tested on: HL-60; experiment: ROS generation (CM-H2DCFDA, flow cytometry); format: cell-based, human; conditions: human, 100 µM
Protocol: as §1, §2

[3] = tested on: E. coli ATCC 25,922; experiment: Resistance induction by serial passage on MHA plates; format: cell-based, Escherichia coli; conditions: passaged with CIP 0.012 μM or 3 0.012 μM
[4] = target: T1, yeast DNA topoisomerase II (Saccharomyces cerevisiae, UniProt P06786); experiment: biochemical; format: biochemical; conditions: 500 µM
T1 construct: purchased Inspiralis (Norwich, UK)

[5] = tested on: LLC-PK1; experiment: cells; format: cell-based, pig; conditions: Sus scrofa; LLC-PK1, 72 h, MTT
Protocol: (§3) Among the conjugates, LVXC-S-S-CTP10-NH2 (5) was the least cytotoxic. […] In the case of HEK 293 and LLC-PK1 cells, the IC50 values of 5 were nearly four times higher. […] Additionally, we noted that the cancer cells Hep G2 were less sensitive to the action of the given compounds than the non-cancer cells (HEK 293 and LLC-PK1).
(§4) Cytotoxicity was assessed against three mammalian cell lines: LLC-PK1, Hep G2, and HEK 293. Multiwell (96–well) plates were seeded at 7000 cells/well in Medium 199 supplemented with 7.5% FBS, MEM Eagle’s medium supplemented with 10% FBS, or DMEM medium supplemented with 10% FBS, respectively. All media were supplemented with L-glutamine and antibiotics (penicillin/streptomycin). Cells were allowed to attach overnight. Drugs were dissolved in cell culture medium and added to wells in 100-µL aliquots of 2× concentrated solutions, in triplicates. To control wells, 100 µL of the medium were added. Cells were incubated with the studied compounds for 72 h at 37 °C and 95%/5% or 90%/10% (HEK 293 cells) CO2 atmosphere. Then, 20-µL aliquots of MTT solution in PBS (4 mg/mL) were added to all wells and plates were incubated further for 3 h in 37 °C. Formazan crystals formed were dissolved in 100 µL of DMSO and the absorbance of the solutions was measured using a multiwell plate reader (Spark, Tecan, Männedorf, Switzerland) at λ = 540 nm. Cytotoxicity was determined compared to the drug-free control. All experiments were performed in triplicates.

[6] = tested on: human red blood cells; experiment: Hemolysis assay
[7] = tested on: HEK 293; experiment: cells; format: cell-based, human; conditions: Homo sapiens, HEK293; HEK 293, 72 h, MTT
Protocol: as §3, §4

[8] = tested on: Hep G2; experiment: cells; format: cell-based, human; conditions: Homo sapiens, HepG2; Hep G2, 72 h, MTT
Protocol: as §3, §4

[9] = tested on: P. aeruginosa ATCC 27853; experiment: microbe, parasite or virus in culture; format: cell-based, Pseudomonas aeruginosa; conditions: Pseudomonas aeruginosa, ATCC27853; P. aeruginosa ATCC 27853, MHB
Protocol: (§5) The antibacterial activity of TP10-NH2-based conjugates, as well as its constituents, was evaluated by microdilution assay in Mueller Hinton broth, MHB (Table 1). […] There are, however, some exceptions. […] Its activity against two other tested bacteria was somewhat lower though.
(§6) The antibacterial activity (bacteriostatic: MIC and bactericidal: MBC) of the tested compounds was determined in MHB (Mueller Hinton Broth, Sigma Aldrich, St. Louis, MO, USA) using a serial two-fold dilution method in 96-well microtiter plates according to CLSI recommendations, described in M07-A10 document. The exact conditions have been described previously. All experiments were performed in three replicates. The MIC90 and MIC50 values were defined as the concentrations of compounds tested that caused a 90% or 50% reduction of growth, respectively, comparing to the drug-free control.

[10] = tested on: S. epidermidis ATCC 12228; experiment: microbe, parasite or virus in culture; format: cell-based, Staphylococcus epidermidis; conditions: Staphylococcus epidermidis, ATCC12228; S. epidermidis ATCC 12228, MHB
Protocol: as §5, §6

[11] = tested on: Gram-positive and Gram-negative bacteria; format: cell-based; conditions: MHB, four bacteria
Protocol: as §5, §6

[12] = tested on: S. aureus ATCC 29213; experiment: microbe, parasite or virus in culture; format: cell-based, Staphylococcus aureus; conditions: Staphylococcus aureus, ATCC29213; S. aureus ATCC 29213, MHB
Protocol: as §5, §6

[13] = tested on: E. coli ATCC 25922; experiment: microbe, parasite or virus in culture; format: cell-based, Escherichia coli; conditions: Escherichia coli, ATCC25922; E. coli ATCC 25922, MHB
Protocol: as §5, §6

[14] = tested on: S. aureus ATCC 29,213; experiment: Resistance induction by serial passage on MHA plates; format: cell-based, Staphylococcus aureus; conditions: passaged with CIP 0.1875 μM or 3 0.375 μM
[15] = tested on: C. krusei DSM 6128; experiment: microbe, parasite or virus in culture; conditions: Pichia kudriavzevii, DSM6128
[16] = tested on: C. glabrata DSM 11226; experiment: microbe, parasite or virus in culture; conditions: Nakaseomyces glabratus, DSM11226
[17] = tested on: yeasts of the Candida genus; experiment: microbe, parasite or virus in culture; conditions: read-out: MIC against Candida strains

T1 sequence (P06786 whole entry): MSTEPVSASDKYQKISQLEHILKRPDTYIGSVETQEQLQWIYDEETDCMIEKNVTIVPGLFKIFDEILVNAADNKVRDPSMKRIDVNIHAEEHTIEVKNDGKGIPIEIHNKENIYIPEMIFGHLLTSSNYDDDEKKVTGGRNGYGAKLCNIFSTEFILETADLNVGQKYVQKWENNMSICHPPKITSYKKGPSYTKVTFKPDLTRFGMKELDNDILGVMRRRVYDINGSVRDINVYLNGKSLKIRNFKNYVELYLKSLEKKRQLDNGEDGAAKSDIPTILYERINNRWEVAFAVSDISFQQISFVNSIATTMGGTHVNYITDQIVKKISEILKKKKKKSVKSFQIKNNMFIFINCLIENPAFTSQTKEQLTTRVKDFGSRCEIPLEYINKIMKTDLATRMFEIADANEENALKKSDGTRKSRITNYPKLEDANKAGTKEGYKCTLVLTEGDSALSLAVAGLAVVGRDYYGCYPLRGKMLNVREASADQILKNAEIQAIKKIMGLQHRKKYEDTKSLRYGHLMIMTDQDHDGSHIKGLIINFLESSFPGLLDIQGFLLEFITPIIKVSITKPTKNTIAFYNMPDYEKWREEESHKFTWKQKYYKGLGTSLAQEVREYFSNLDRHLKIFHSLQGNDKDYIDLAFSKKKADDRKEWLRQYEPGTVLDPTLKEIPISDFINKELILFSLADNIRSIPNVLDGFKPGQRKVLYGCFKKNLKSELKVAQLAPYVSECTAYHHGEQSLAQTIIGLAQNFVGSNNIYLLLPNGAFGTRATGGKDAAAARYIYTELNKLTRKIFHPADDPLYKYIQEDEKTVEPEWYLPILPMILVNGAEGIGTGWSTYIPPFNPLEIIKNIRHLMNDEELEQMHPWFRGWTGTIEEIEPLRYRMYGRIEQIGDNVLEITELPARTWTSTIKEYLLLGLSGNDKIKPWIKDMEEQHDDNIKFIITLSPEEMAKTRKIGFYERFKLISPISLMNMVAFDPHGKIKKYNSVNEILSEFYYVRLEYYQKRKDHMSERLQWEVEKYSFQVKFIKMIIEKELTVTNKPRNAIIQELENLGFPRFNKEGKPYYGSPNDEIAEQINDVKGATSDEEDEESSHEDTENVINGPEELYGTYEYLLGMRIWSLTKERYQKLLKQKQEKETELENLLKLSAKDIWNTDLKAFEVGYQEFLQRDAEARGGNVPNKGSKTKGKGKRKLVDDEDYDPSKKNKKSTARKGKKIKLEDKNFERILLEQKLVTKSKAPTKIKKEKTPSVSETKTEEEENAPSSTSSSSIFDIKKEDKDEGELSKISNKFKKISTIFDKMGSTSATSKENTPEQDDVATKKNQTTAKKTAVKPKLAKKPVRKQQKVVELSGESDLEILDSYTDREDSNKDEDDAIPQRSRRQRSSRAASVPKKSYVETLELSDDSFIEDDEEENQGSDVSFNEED

| Structure (SMILES) | Topoisomerase II inhibition at the highest used concentration [4] | IC50 [5] [µM] | Hemolytic effect [6] | IC50 [7] [µM] | IC50 [8] [µM] | MIC50 [9] [µM] | MIC90 [9] [µM] | MIC50 [10] [µM] | MIC90 [10] [µM] | MIC50 range over tested bacteria [11] [µM] | MIC90, upper end of range over tested bacteria [11] [µM] | MIC50 [12] [µM] | MIC90 [12] [µM] | MIC50 [13] [µM] | MIC90 [13] [µM] | other results |
| --- | --- | --- | --- | --- | --- | --- | --- | --- | --- | --- | --- | --- | --- | --- | --- | --- |
| O=C(O)c1cn(C2CC2)c2cc(N3CCNCC3)c(F)cc2c1=O [CIP, ciprofloxacin] | residual activity | > 200 | do not cause a hemolytic effect | > 200 | > 200 | 0.4 (≈ 0.133 µg/mL) | 0.4 (≈ 0.133 µg/mL) | 0.8 (≈ 0.265 µg/mL) | 1.6 (≈ 0.53 µg/mL) | 0.0125 to 0.8 | ≤ 1.6 | 0.2 (≈ 0.0663 µg/mL) | 0.2 (≈ 0.0663 µg/mL) | < 0.0125 | 0.0125 (≈ 0.00414 µg/mL) | Incubation time at which significant ROS effect was noted [1]: 1 h; Incubation time at which significant/critical ROS level was noted [2]: 15 min; Dot plot quadrant LB ([2]; 3 h): 96.2 ± 2.6; Dot plot quadrant LT ([2]; 3 h): 1.1 ± 1.5; Dot plot quadrant RB ([2]; 3 h): 2.6 ± 1.6; Dot plot quadrant RT ([2]; 3 h): 0.7 ± 0.7; Dot plot quadrant LB ([2]; 6 h): 97.5 ± 1.2; Dot plot quadrant LT ([2]; 6 h): 0.4 ± 0.3; Dot plot quadrant RB ([2]; 6 h): 2.1 ± 1.3; Dot plot quadrant RT ([2]; 6 h): 0.0 ± 0.0; Dot plot quadrant LB ([2]; 24 h): 99.7 ± 0.2; Dot plot quadrant LT ([2]; 24 h): 0.1 ± 0.1; Dot plot quadrant RB ([2]; 24 h): 0.2 ± 0.1; Dot plot quadrant RT ([2]; 24 h): 0.0 ± 0.0; Increase of MIC after the 5th passage [3]: 8 fold; Increase of MIC after the 10th passage [3]: 8 fold; Increase of MIC compared to the control after passaging [14]: 2 fold |
| C[C@H]1COc2c(N3CCN(C)CC3)c(F)cc3c(=O)c(C(=O)O)cn1c23 [LVX, levofloxacin, reference compound] | residual activity | > 200 | do not cause a hemolytic effect | > 200 | > 200 | 0.8 (≈ 0.289 µg/mL) | 0.8 (≈ 0.289 µg/mL) | 0.8 (≈ 0.289 µg/mL) | 1.6 (≈ 0.578 µg/mL) | 0.0125 to 0.8 | ≤ 1.6 | 0.4 (≈ 0.145 µg/mL) | 0.4 (≈ 0.145 µg/mL) | 0.025 (≈ 0.00903 µg/mL) | 0.025 (≈ 0.00903 µg/mL) | MIC50 [15]: > 200 µM; MIC50 [16]: > 200 µM; MIC [17]: > 200 µM |
